The text below walks through data of a melting point compilation (Tetko et al.; mined from patent text by program, amines drawn as free bases though some values may be those of a salt).

As usually defined, the melting point is the temperature of the solid-liquid transition.

Consider `O=C(O)c1ccc(-n2sc(-c3ccccc3)cc2=O)cc1`, for which the melting point was 238 to 240 °C. Molecule `COC(=O)[C@]1(OS(C)(=O)=O)C[C@H](CC(C)C)[C@@H](O)[C@H](OC(=O)c2ccccc2)C1` came in with a melting point of 161 to 162 °C. For `CC(=O)Nc1ccc(C(=O)N(CCN2CCC(C(=O)c3ccc(F)cc3)CC2)c2ccc(O)cc2)cc1`, the melting point is 133 to 137 °C. Then `CCOC(=O)c1c(C(F)(F)F)nc(C(F)(F)Cl)c(C(=O)OC)c1NC(C)C`, with 43.5 to 45 °C; and `CC=C(c1ccc(F)cc1)c1ccc(F)cc1`, with 43 to 44 °C; and `COCc1c(S(C)(=O)=O)ccc(C(=O)O)c1C`, with 129 to 131 °C. `NN=Cc1ccc(CC(=O)NC2CCC3(CC2)CN(CC(=O)O)C(=O)O3)cc1` (centres undefined): the melting point was 193 to 196 °C. The same measure for `CC(=O)c1ccc2c(c1)ncn2-c1cccc(-c2ccccn2)c1`: 158 to 159 °C; for `c1ccc2c3c([nH]c2c1)CCC3`: 135 °C. Consider `CC(=O)Nc1ccc(F)c(-c2ccncc2)c1F`, for which the melting point was in the range of 148 to 150 °C. `COc1ccc(NN=C(Sc2ccc(C)cc2C)C(C)=O)cc1`: the melting point is 109 to 111 °C. Then `OCc1cn(-c2ccc(Cl)cn2)cn1`, with 82 to 87 °C; and `COCc1nc2c(N)nc3cc(CCC(=O)N(C)C)ccc3c2n1CC(C)(C)O`, with 142 to 145 °C; and `COc1ccc(OCC2CO2)c(C(=O)Nc2cccc3[nH]ccc23)c1` (centres undefined), with 122 °C. Consider `Cn1c(=O)c(-c2ccc(Cl)cc2Cl)cc2c3cc(-c4csc(COC(=O)C(C)(C)C)n4)ccc3n(C)c21`, for which the melting point lay in the range of 193 to 195 °C. The molecule `Cc1cc(C2C(=O)Oc3c2cc(C(C)(C)C)cc3C(C)(C)C)cc(C)c1O` (centres undefined) displayed a melting point of 225 to 228 °C.

`Cc1cccc(OCc2cccc(OCc3ccc4ccccc4n3)c2)c1C(=O)O`: the melting point is 154 to 156 °C.

For the molecule `CCCc1c(OCCCCCCc2ccc3cc(O)c(O)cc3c2)ccc(C(=O)O)c1O`, the melting point was in the range of 154 to 158 °C. `COc1ccccc1-c1ccn2ncc(Br)c2n1` gave a melting point of 125 to 128 °C. Turning to `Cc1cc(-c2cc(C(F)F)n3ncc(C(=O)Nc4cccc(S(N)(=O)=O)c4)c3n2)ccc1C(F)(F)F`, the melting point is 252 °C. In turn, `CC(C)(C#N)c1ccc(OCc2ccccc2)cc1` came in with a melting point of 63 to 64 °C. The molecule `COC(=O)N1CCC(Nc2ncc3ncnc(Nc4ccc(F)c(Cl)c4)c3n2)CC1` yielded a melting point of 213 to 215 °C. `OCCNC(=S)NC(Cc1cccs1)c1ccccc1` (centres undefined) gave a melting point of 109 to 112 °C. Consider `COc1ccc(C[C@H](CC(=O)N2CCOCC2)C(=O)OCc2ccccc2)cc1`, for which the melting point lay within 77 to 79 °C. The molecule `CCOCCNC(=O)c1cc(C(=O)OC)c(O)c2ncc(Cc3ccc(F)cc3)cc12` displayed a melting point of 174 to 175 °C. With `CC(C)(C)c1cc(Cn2cncn2)cc(C(C)(C)C)c1O`, the melting point is under 30 °C. Consider `COc1ccc(-c2cc(-c3ccccc3)[nH]c2C(=O)NCc2ccc(C(=O)NO)cc2)cc1`, for which the melting point was in the range of 187 to 188 °C.

Take `CC(C)C(=CC(CNC(=O)c1cccnc1)=NO)C(C)[N+](=O)[O-]` (centres undefined): the melting point lay within 132 to 135 °C. Regarding `O=S(=O)(Cc1ccccc1)NCCCCOc1ccc(-n2ccnc2)cc1`, the melting point lay within 123 to 124 °C. Molecule `CC(=O)CCCn1c(=O)c2c(ncn2C)n(C)c1=O` gave a melting point of 109 to 111 °C. As for `O=[N+]([O-])C=C(NCCO)NCCO`, the melting point lay in the range of 145 to 146 °C. In turn, `Cc1nc2ccnn2c(=O)[nH]1` came in with a melting point of 268 °C. In turn, `COc1ccccc1C(=O)c1cccc(Br)n1` showed a melting point of 97 to 98 °C.

Regarding `O=S(=O)(Nc1cccnc1Nc1ccccc1)c1ccc(Oc2ccccc2)cc1`, the melting point was in the range of 164 to 166 °C. On to `CC(C)(C)c1cc(SCCc2n[nH]c(=O)o2)cc(C(C)(C)C)c1O`, for which the melting point is 86 to 87.5 °C. In turn, `COc1cc2c(c3c1OC(C)(C)C3)C(c1ccccc1)=NC(C)(CN1C(=O)c3ccccc3C1=O)C2` (centres undefined) returned a melting point of 121 to 125 °C. `CC(=O)Nc1nc(CCc2ccc(CCC(=O)O)s2)cs1` registered a melting point of 164 to 165 °C.

`CC(C)(C)Oc1nc2cc(F)c([N+](=O)[O-])cc2[nH]c1=NC#N` yielded a melting point of 161 to 164 °C. For `CCc1cc(SCc2cccc3oc(-c4ccc(C(F)(F)F)cc4)nc23)ccc1OCC(=O)O`, the melting point was 127 to 128 °C. The same measure for `O=C(c1c(F)cccc1F)N1CN(c2ccccc2)CN(c2ccc(Cl)cc2)C1=O`: 166 to 168 °C.

Take `CC(=O)OCCc1c(C2=CCC(c3ccccc3)(N(C)C)CC2)[nH]c2ccccc12` (centres undefined): the melting point lay within 146 to 148 °C.

With `COc1cccc(CC(=O)O)c1OCCCc1cc(OC(C)C)nn1Cc1ccc(Cl)cc1C`, the melting point is 108 to 109 °C.

With `O=c1oc(-c2ccccc2)cc(O)c1CCCc1ccccc1`, the melting point is 195 to 196 °C.

The molecule `Cc1ncc(CN2CCc3cc(-c4cc(Cl)cc(Cl)c4)ccc3C2)c(N)n1` registered a melting point of 205 to 211 °C. The same measure for `ClC(=NNc1ccccc1)c1cccc(Cl)c1`: 80 to 81.5 °C; for `CNC1C(O)CC2C3CCC4CC(O)CCC4(C)C3CCC21C` (centres undefined): 241 to 253 °C; for `CCCCc1nc2c(N)nc3ccccc3c2n1CCCCCS(C)(=O)=O`: 173 to 175 °C.

In turn, `Cc1ccc(C(=O)NC(NC(=S)Nc2ccccc2F)C(F)(F)F)cc1` (centres undefined) registered a melting point of 197 to 198 °C. In the case of `CC#CCOc1cc(Nc2cccc(F)c2F)ncn1`, the melting point was 148 °C.

`CC(C)Oc1ccc(NC(=O)C2(C)CC2)cc1C(F)(F)F` showed a melting point of 106 to 109 °C.

As to `CN(C=O)C1C(O)CC2C3CCc4cc(O)ccc4C3CCC21C` (centres undefined), the melting point fell in the range of 272 to 276 °C. The same measure for `CC(C)(C)C(=O)OCCN(CCOC(=O)C(C)(C)C)C(=O)COC(=O)C(C)(C)C`: 51.4 °C; for `Cc1cn2cccc(CCl)c2n1`: 110 to 112 °C; for `CC1(C(O)C(N)=O)CC=CCC1` (centres undefined): 102 to 110 °C. In turn, `Cn1cc(C[C@H]2NC(=O)[C@@H](CCCN)NC2=O)c2ccccc21` came in with a melting point of 148 °C.

Regarding `COC(=O)c1n[nH]cc1[N+](=O)[O-]`, the melting point was 115 to 117 °C. The same measure for `COCCOCCN1C(=O)C2(c3cc4c(cc3OC2OC)OCCO4)c2c(OC)cccc21` (centres undefined): 109 to 110 °C. As to `CS(=O)(=O)c1ccc(-n2nc(C(F)(F)F)cc2-c2ccc(-c3cnco3)cc2)cc1`, the melting point was 178 to 180 °C. The same measure for `CC1CC(=O)N(CCCCN2C(=O)c3ccccc3C2=O)C1=O` (centres undefined): 79 to 80 °C; for `COc1ccc(OCC(O)CN2CCC(C3Oc4ccccc4Cn4cccc43)CC2)cc1` (centres undefined): 95 to 120 °C; for `Nc1ccccc1C1CCCN(C(=O)C(F)(F)F)C1` (centres undefined): 138 °C. `CNC(=O)ON=C1N=C(C(C)C)C(C)(C)S1` displayed a melting point of 89 to 91 °C.

`Cc1cn(C2OC(CO)C(O)C2O)c(=S)[nH]c1=O` (centres undefined): the melting point was in the range of 206 to 208 °C. Consider `CC(=O)CCN1CCC(Nc2nc3ccccc3n2Cc2ccc(F)cc2)CC1`, for which the melting point was 131 °C.

`CCOC(=O)Nc1nc(C)c(-c2nc3ccccc3c(=O)n2-c2ccccc2Cl)s1` yielded a melting point of 246 to 247 °C. Regarding `NC/C(=C\F)COc1ccc(Cl)cc1Cl`, the melting point was determined as 104 °C. Consider `N#Cc1ccc([C@H]2CC[C@H](CI)CC2)cc1`, for which the melting point is 127 °C.

`Cc1cc(-c2nnc3c4ccccc4c(OCc4cncn4C)nn23)no1` gave a melting point of 236 to 238 °C. The molecule `Clc1ccc2[nH]c3c(c2c1)CCN1CCCC=C31` showed a melting point of 114 °C. Turning to `CCCCCCCCCCCOCc1ccc(C(=O)O)cc1OCCCCCCCCCCC`, the melting point was in the range of 61 to 63 °C. In the case of `CS(=O)(=O)C(=C1CN(C(c2ccc(Cl)cc2)c2ccc(Cl)cc2)C1)c1cccc(SC(F)(F)F)c1`, the melting point is 70 °C. In the case of `CC(C)C(C(=O)OCc1nn(Cc2ccccc2)c(=O)o1)c1ccc(Cl)cc1` (centres undefined), the melting point came to 70 °C. Then `CC1(C)c2ccc([N+](=O)[O-])cc2[C@@H](NC(=O)NCc2ccccc2)[C@@H]1O` (relative stereo), with 202 to 204 °C.

`Cn1cc2c(n1)-c1c(Cc3ccccc3)sc(C(N)=O)c1CC2` yielded a melting point of 212 to 213 °C. Molecule `CCOC(=O)Oc1ccc(S(=O)(=O)N2c3cc(C(F)(F)F)ccc3-n3cccc3C2CC)cc1` (centres undefined) displayed a melting point of 88 to 90 °C. `NS(=O)(=O)c1ccc(-c2[nH]c3ccccc3c2-c2ccc(Cl)cc2)cc1` came in with a melting point of 298 to 300 °C. Turning to `Cn1cc(C(=O)NCc2ccc(Cl)cc2)c(=O)c2cc(CN=[N+]=[N-])ccc21`, the melting point was 219 to 220 °C. Take `Cc1csc(C(C)(O)c2nc(C)cs2)n1`: the melting point fell in the range of 82 to 84 °C. The same measure for `CC(C)(C)NC(=O)[C@@H]1CCCC[C@H]1C[C@@H](O)[C@H](Cc1ccccc1)NC(=O)[C@H](CC(N)=O)NC(=O)c1cc(Cl)cc(Cl)c1`: 220 to 226 °C. Consider `CN(C)C1CCN(c2nc(N3CCOCC3)c3ncnc(OCc4ccccc4)c3n2)CC1`, for which the melting point lay within 186 to 188 °C. In turn, `O=c1cc(CBr)c2ccc(O)cc2o1` registered a melting point of 182 to 184 °C. `CCN(CC)c1ccc(-c2cc(-c3ccc(C(=O)O)cc3)ccc2CCCN)cc1C(C)(C)C`: the melting point was determined as 272 °C. The same measure for `S=C1Nc2ccccc2Cn2cccc21`: 228 to 231 °C. The same measure for `N#Cc1nn(-c2c(Cl)cc(C(F)(F)F)cc2Cl)c(F)c1S(=O)(=O)C(F)(F)F`: 95 to 98 °C; for `Cc1ccc(C2COc3c(C)c(C)c(NC(=O)CC(C)(C)C)c(C)c32)nc1` (centres undefined): 170 to 171 °C. `C=CCOc1ccnc2c([N+](=O)[O-])cccc12` yielded a melting point of 127 °C. In turn, `Nc1cc(Br)cnc1CCCCNc1nccc(=O)[nH]1` had a melting point of 130 to 135 °C. Then `C#Cc1cc(F)c(-n2c(=O)cc(C(F)(F)F)n(C)c2=O)c2c1OC(C)C2` (centres undefined), with 69 to 72.5 °C. The same measure for `CN1CCSC1=NC(=S)Nc1ccccc1`: 169 to 170 °C.
